Entries after “also recorded” stand apart in the source; their conditions may differ.
Experiments:
[1] = tested on: SOD1G93A mutant rat model of ALS; assay: Immunohistochemical staining of spinal cords after post-paralysis isoquercetin treatment (Example 1); format: in vivo; settings: SOD1G93A rats, versus vehicle
Method: Materials and Methods: Animals: Male SOD1G93A progeny were used for further breeding to maintain the line. Rats were housed in a centralized animal facility with a 12-h light-dark cycle with ad libitum access to food and water. Perfusion with fixatives was performed under 90% ketamine-10% xylazine anesthesia and all efforts were made to minimize animal suffering, discomfort, or stress. All procedures using laboratory animals were performed in accordance with the national and international guidelines and were approved by the Institutional Animal Committee for animal experimentation. Male hemizygous NTac:SD-TgN (SOD1-G93A)L26H rats (Taconic), originally developed by Howland et al. (2002), were bred locally by crossing with wild-type nontransgenic Sprague-Dawley female rats.
Treatment with Isoquercetin: All rats were weighed and evaluated for motor activity daily.
Fixed spinal cords were removed, postfixed by immersion for 24 h, and then transverse sectioned ([…]) in a Leica cryostat. Serial sections were collected in 100 mM PBS for immunohistochemistry.

[2] = tested on: rat model of ALS; settings: downregulation of aberrant glial cells and reactive microglia; cited from earlier work

In the case of `O=c1c(O[C@@H]2O[C@H](CO)[C@@H](O)[C@H](O)[C@H]2O)c(-c2ccc(O)c(O)c2)oc2cc(O)cc(O)c12` [isoquercetin, quercetin-3-O-β-d-glucopyranoside], the “number of ventral horn motor neurons expressing misfolded SOD1 and Ubiquitin” value ([1]; 15 days after paralysis onset) is reported as “apparently reduced; also recorded: significant reduction”, the “microgliosis: number of Iba1+ cells in the ventral horn of the lumbar spinal cord” value ([1]; oral 30 mg/kg/day for 15 days starting after paralysis onset, 30 mg/kg/day) is reported as “significantly reduced; also recorded: Significant reduction” and the “number of hypertrophic (reactive, GFAP-positive) astrocytes surrounding motor neurons in the lumbar spinal cord” value ([1]; oral 30 mg/kg/day for 15 days starting after paralysis onset, given together with vitamin C and niacin, 30 mg/kg/day) is reported as “significantly reduced; also recorded: significant reduction”.

In the case of `Cc1ccc(NC(=O)c2ccc(CN3CCN(C)CC3)cc2)cc1Nc1nc(-c2cccnc2)cs1` [masitinib], the paralysis progression [2] is listed as “slowed paralysis progression”.
